What was measured:
[1] = target: PDE5 (Mus musculus, UniProt Q8CG03); assay: PDE5 inhibition, two-step radioactive [3H]cGMP assay; type: biochemical; conditions: for IC50 ratio PDE6/PDE5: pure compounds, selectivity on PDE5 over PDE6
[2] = target: T1, PDE6 (Gallus gallus, UniProt P52731); assay: PDE6 inhibition, two-step radioactive [3H]cGMP assay; type: biochemical, chicken
T1 sequence (P52731 1-859 limits assumed): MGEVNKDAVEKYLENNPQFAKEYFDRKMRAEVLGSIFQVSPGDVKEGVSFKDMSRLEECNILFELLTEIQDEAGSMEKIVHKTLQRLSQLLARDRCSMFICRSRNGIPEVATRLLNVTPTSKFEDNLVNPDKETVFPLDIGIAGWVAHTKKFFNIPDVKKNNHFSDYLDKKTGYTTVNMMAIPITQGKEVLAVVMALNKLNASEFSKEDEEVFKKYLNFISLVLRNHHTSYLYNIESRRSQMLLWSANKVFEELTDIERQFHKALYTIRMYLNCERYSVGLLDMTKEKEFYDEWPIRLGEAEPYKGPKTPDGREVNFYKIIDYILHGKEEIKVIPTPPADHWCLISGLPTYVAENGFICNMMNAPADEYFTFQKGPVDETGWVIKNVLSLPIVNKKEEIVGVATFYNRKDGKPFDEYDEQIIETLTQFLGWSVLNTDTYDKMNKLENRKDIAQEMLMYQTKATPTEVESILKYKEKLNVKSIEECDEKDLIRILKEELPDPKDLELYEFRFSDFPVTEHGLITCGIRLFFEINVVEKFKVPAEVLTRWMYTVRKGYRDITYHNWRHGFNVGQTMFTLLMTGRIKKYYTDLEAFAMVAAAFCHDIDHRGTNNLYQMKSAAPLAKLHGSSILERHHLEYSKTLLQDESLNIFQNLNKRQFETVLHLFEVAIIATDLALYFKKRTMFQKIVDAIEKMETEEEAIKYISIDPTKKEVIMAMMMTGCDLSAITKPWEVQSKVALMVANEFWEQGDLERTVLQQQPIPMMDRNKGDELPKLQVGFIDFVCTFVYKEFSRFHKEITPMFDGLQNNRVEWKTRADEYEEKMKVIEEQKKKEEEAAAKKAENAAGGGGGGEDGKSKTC

Structure (SMILES)	IC50 [1] [nM]	IC50 [2] [nM]	IC50 ratio PDE6/PDE5 [1]	inhibition at 10 µM ([1]; read-out: % Inhibitory activity at 10 μM PDE5, final concentration 10 μM, n = 3) [%]	inhibition at 10 µM ([2]; read-out: % Inhibitory activity at 10 μM PDE6, final concentration 10 μM, n = 3) [%]
OCCN(CCO)c1nc(N2CCCCC2)c2nc(N(CCO)CCO)nc(N3CCCCC3)c2n1 [Dipyridamole, dipyridamole]	1460 ± 810	231 ± 30			
CCCc1nn(C)c2c(=O)[nH]c(-c3cc(S(=O)(=O)N4CCN(C)CC4)ccc3OCC)nc12 [Sildenafil, sildenafil]	6.8	33 ± 10	4.85		
COc1cc(OC)c2c(=O)cc(-c3ccccc3)oc2c1 [Compound 2, 5,7-dimethoxyflavone]	10600 ± 2090	39500 ± 1000	3.71	> 35	> 35
